US11684675B2, “Dimeric collagen hybridizing peptides and methods of using” (University of Utah Research Foundation, priority 2015, dated 2023)
Non-standard residues stand in square brackets, D forms with d. No end group written: not given here. Hyp = O=C(O)[C@@H]1C[C@@H](O)CN1; CF = carboxyfluorescein label

What was measured:
[1] = Triple helix melting point (Tm) by circular dichroism at 225 nm; format: physicochemical; conditions: triple helix melting
Procedure: FIGS. 5A, 5B, 5C, and 5D show the thermal denaturation of fully assembled CHPs and subsequent cooling to initial temperature. Samples were heated at 1° C./min from their initial temperature final temperature of 90° C. Sample was then cooled at 1° C./min to the starting temperature. (A) Thermal denaturation and partial reassembly of CHP CF-6d (150 μM) monitored at 225 nm. Sample was measured from 4° C. to 90° C. (B) Thermal denaturation and partial reassembly of CHP […] (75 μM, corresponding to 150 μM strand concentration) monitored at 225 nm. Sample was measured from 4° C. to 90° C. (C) Thermal denaturation and partial reassembly of CHP CF-9 (150 μM) monitored at 225 nm. Sample was measured from 10° C. to 90° C. (D) Thermal denaturation and partial reassembly of CHP CF-9d (75 μM, corresponding to 150 μM strand concentration) monitored at 225 nm. Sample was measured from 10° C. to 90° C.
FIGS. 11A and 11B show the First Derivative of mean residue ellipticity (MRE) at 225 nm in CD. […] There is no significant change in melting point between the monomeric and dimeric forms of the same peptide.
(§1) Circular Dichroism: Circular Dichroism (CD) was measured for all peptides at 225 nm. Melting curves were taken on peptides between 10 and 80° C. at a heating rate of 0.5° C./min, with pauses at each 1° C. Refolding experiments were performed after peptide solutions were incubated at 4° C. for at least 12 hours. Concentrations were normalized to strand concentration.

[2] = tested on: crosslinked gelatin films; experiment: Binding of CF-labelled CHPs to crosslinked gelatin films at 37° C. with and without preheating; parameters: species or system porcine; conditions: for binding to gelatin wells at 37° C. without preheating: 20 μM, 37° C. overnight, PBS wash 20 h, FIG. 6C
Procedure: FIGS. 3A and 3B show the affinity of CHPs to gelatin films as monitored by fluorescence of conjugated CF fluorophore (492 ex, 533 em). (A) Fluorescence of CHPs bound to crosslinked gelatin after incubation at 37° C. overnight with no workup. (B) Fluorescence of CHPs remaining in crosslinked gelatin after incubation at 37° C. overnight without preheating, followed by washing with 1×PBS at 37° C. (20 h).
(§2) (A) Fraction of peptide remaining in a crosslinked gelatin film after 17 h at 25° C. (10 total washes). Values are normalized to fluorescence remaining in wells after 6 washes at 4° C. (>95% removal of CHPs 9r, 6r, and 5r). All washes performed in 1×PBS. (B) CHPs (15 μM) premixed into 10% porcine gelatin and preheated to 80° C. (10 min) before being added to a 96 well plate. Excess CHP-gelatin mixture was removed, then the premix was incubated at 4° C. for 2 hours. Wells were washed at 4° C., 5 times (>95% removal of CHPs 9r, 6r, and 5r). Wells were then washed for 2 hours (6 washes total) at 25° C. to monitor CHP remaining in the well. (C) Fluorescence of CHPs remaining in crosslinked gelatin after incubation at 37° C. overnight without preheating, followed by washing with 1×PBS at 37° C. (20 h). (D) Fluorescence of CHPs remaining in crosslinked gelatin after incubation at 37° C. overnight (80° C. preheating, 10 min), followed by washing with 1×PBS at 37° C. (20 h).
Dimeric CHPs were assessed for their ability to bind to collagen strands in crosslinked gelatin films. CHP solutions (20 μM in PBS) were added directly to the crosslinked gelatin films. For heated experiments, CHPs were preheated to 80° C. for 10 minutes before addition. Peptides were allowed to fully equilibrate with the gel at 37° C. overnight before being exposed to repeated washes (4×, PBS) at 37° C. to fully remove any non-specifically bound peptide and to determine binding level at body temperature. To measure retention, peptides were bound as previously described, but were subsequently washed with PBS 37° C. (5×1 h, 1×12 h) to measure retention within the gelatin films. […] Additionally, after a period of 20 hours, higher level of the dimeric CHP remained in the gelatin compared to the monomeric CHP.
A major limitation of the use of CHP in vivo, is the requirement of the triple helix to be fully disassembled before being injected. […] For this test, peptide solutions were allowed to warm to room temperature before being added (50 μL, 20 μM) to previously prepared crosslinked gelatin films. Solutions were then incubated at 37° C. overnight before removing the solution. Wells were washed at 37° C. with PBS (20 h) to determine binding. Preheated samples were prepared and incubated in the same way, but with preheating (80° C., 10 min) before being added to the crosslinked gelatin wells.

[3] = tested on: crosslinked gelatin films; experiment: Retention of CF-labelled CHPs in crosslinked gelatin films (bound at 4° C., washed at 25° C./r.t.); format: binding, porcine; conditions: for retention / affinity in gelatin films: 20 μM, preheated 80° C., bound at 4° C., washed at r.t. with PBS, FIG. 6A; for retention in crosslinked gelatin films: Example 3 retention studies
Procedure: as §2
Binding to Gelatin films. Peptide solutions (20 μM in PBS) were preheated to 80° C. for 10 minutes before being added directly to the crosslinked gelatin films. Peptides were allowed to fully equilibrate with the gel at 4° C. overnight before being exposed to repeated washes (4×30 min) at 4° to fully remove any non-specifically bound peptide. Gelatin wells were then washed at r.t. with PBS (5×1 h, lx 12 h) to measure retention within the gelatin films. […] To eliminate the possibility of these peptides merely becoming physically entrapped within the gelatin after forming triple helix or forming triple helix before binding, binding affinity was verified by producing a premix of the CHPs and Gelatin to eliminated diffusion-limited binding before washing the wells in a similar manner.
Fluorescence Binding: CHP binding to gelatin was monitored by conjugating a fluorescent Carboxyfluorescein (CF) molecule to the N-terminus of each peptide via standard SPPS. Solutions of the fluorescent peptides were heated to 80° C. for 5 min before injecting 50 μL onto a pre-prepared EDC-crosslinked thin gelatin film in a 96 well plate. Peptides incubated overnight at 4° C., then washed with repeated rounds of 4° C. 1×PBS followed by 25° C. 1×PBS.

[4] = CD refolding (triple helix assembly) at 10° C. monitored at 225 nm; format: physicochemical; conditions: 10° C., FIG. 12A
Procedure: Conversion was assumed to be at 100% after 96 h incubation at 4° C., and max trimer concentration was measured via CD ellipticity at 10° C. Samples were preheated to 80° C. in the sample cuvette for 10 min before being transferred directly to the sample holder held at a constant 10° C. Sample measurement began immediately. Initial time point for analysis was determined by measuring time for a blank (lx PBS) to thermally equilibrate in these conditions.
For all peptides, conversion was assumed to be at 100% after 96 h incubation at 4° C., and max trimer concentration was measured via CD ellipticity at 10° C. Samples were preheated to 80° C. in the sample cuvette for 10 min before being transferred directly to the sample holder held at a constant 10° C. Sample measurement began immediately. Initial time point for analysis was determined by measuring time for a blank (1×PBS) to thermally equilibrate in these conditions. This was set as the zero point for all peptides, as the large jump in CD due to temperature makes the initial jump irresolvable. (A) Rate of assembly of CHP 9 (60, 30, and 15 μM), over 2 h, monitored at 225 nm. (B) Rate of assembly of CHP 9d (30, 15, and 7.5 μM, corresponding to same CHP strand concentration from panel A), over 2 h, monitored at 225 nm. (C) Rate of assembly of CHP 6 (150 and 75 μM), over 2 h, monitored at 225 nm.
FIGS. 12A and 12B show CD refolding at 10° C. of CMPs monitored at 225 nm. CMPs were heated to 80° C. for 5 minutes before being placed into the CD and initial 2 min of monitored data was removed to eliminate thermal transition. Signal was normalized to that of a fully folded peptide.
as §1

porcine gelatin = experiment: SPR gelatin capture by immobilized biotinylated CHPs; format: binding; conditions: gelatin 25 μg/mL
Procedure: FIGS. 7A and 7B show SPR data for porcine gelatin capture by immobilized CHPs. […] Gelatin was applied to the sensor surface during the association phase, followed by elution with blank during dissociation phase. Association occurred for 981 s, followed by dissociation for 1800 s. Values were normalized to a 100% biotin lane, and were adjusted to the mass of peptide immobilized in each well. (A) Preheated (80° C., 10 min), quenched (0° C., 30 s) gelatin (25 μg/mL) was applied to the sensor at an ambient temperature of 37° C. (B) Preheated (80° C., 10 min), quenched (0° C., 30 s) gelatin (25 μg/mL) was applied to the sensor at an ambient temperature of 15° C.
Surface Plasmon Resonance (SPR). […] However, there were major differences observed during the association phase. At 37° C., there was a much higher amount of gelatin adsorbed to all the peptides tested on the surface when compared to 15° C. […] At 15° C., gelatin adsorbed to the surface at a much slower rate. […] However, this lower adsorption rate can be due to a reduced diffusion rate near the surface or a more condensed gelatin structure at this lower temperature.
Dimeric CHP is able to hybridize effectively with denatured collagens with faster folding kinetics than current, monomeric CHPs. Surface plasmon resonance (SPR) was used to measure the ability of the CHPs to trap denatured collagen from solution.

Substance	Tm (° C.) ([1]; Table 2)	retention / affinity in gelatin films [3]	Tm (° C.) ([1]; Table 1)	further results
(GPO)5 [compound 5, reference compound]	27 (SEQ ID NO: 67) ° C.			binding to gelatin wells at 37° C. without preheating [2]: do not have a strong enough affinity to the gelatin to bind effectively at physiologic temperature
(GPO)6-G3K^Biotin [b-6]	36 (SEQ ID NO: 64) ° C.			
(GPO)9-G3K^Biotin [b-9]	68 (SEQ ID NO: 61) ° C.			
CF-G3-(GPO5) (GGGGPPGPPGPPGPPGPP; carboxyfluorescein label; collagen hybridizing peptide; (6)..(6) Proline is hydroxyproline; (9)..(9) Proline is hydroxyproline; (12)..(12) Proline is hydroxyproline; (15)..(15) Proline is hydroxyproline; (18)..(18) Proline is hydroxyproline) [CF-5, reference compound]	28 (SEQ ID NO: 69) ° C.	almost entirely washed out of the gelatin films		
CF-G3-(GPO6) (GGGGPPGPPGPPGPPGPPGPP; carboxyfluorescein label; collagen hybridizing peptide; (6)..(6) Proline is hydroxyproline; (9)..(9) Proline is hydroxyproline; (12)..(12) Proline is hydroxyproline; (15)..(15) Proline is hydroxyproline; (18)..(18) Proline is hydroxyproline; (21)..(21) Proline is hydroxyproline) [CF-6]	37 (SEQ ID NO: 60) ° C.	almost entirely washed out of the gelatin films	37 (SEQ ID NO: 60) ° C.	
CF-G3-(GPO9) [CF-9]	69 (SEQ ID NO: 57) ° C.		69 (SEQ ID NO: 57) ° C.	retention in crosslinked gelatin films [3]: 58%
[(CF-Ahx-GPO)9G3)2KG [CF-9d]	73 (SEQ ID NO: 55 w/label) ° C.		73 (SEQ ID NO: 55 °C	
[(CF-G3GPO)5G3)2KG ({CF}-GGGGP[Hyp]GP[Hyp]GP[Hyp]GP[Hyp]GP[Hyp]GGGKGGG[Hyp]PG[Hyp]PG[Hyp]PG[Hyp]PG[Hyp]PGGGG; not fully specified (C-terminus); also: lysine-branched dimer: K22 is the branch point, second arm (23-43) is written reversed, its N-terminus at position 43 carries CF) [CF-5d]	28 (SEQ ID NO: 70) ° C.	higher affinity to the gelatin films than CF-6		
[(CF-G3GPO)6G3)2KG [CF-6d]	50 (SEQ ID NO: 63) ° C.	comparable affinity to that of the GPO9 monomer (CF-9) and GPO9 dimer (CF-9d)	50 (SEQ ID NO: 63) ° C.	retention in crosslinked gelatin films [3]: 66%; more peptide remaining after 20 hours of wash ([2]; 37° C., non-preheated, vs currently utilized CHP, FIG. 17): 50%; higher initial binding to the gelatin substrate ([2]; non-preheated, vs currently utilized CHP, FIG. 17): 350%
[(GPO)5G3)2KG (GP[Hyp]GP[Hyp]GP[Hyp]GP[Hyp]GP[Hyp]GGGKGGG[Hyp]PG[Hyp]PG[Hyp]PG[Hyp]PG[Hyp]PG; not fully specified (C-terminus); also: lysine-branched dimer: K19 is branch point carrying two arms and a third (C-terminal) Gly, residues 20-37 are the second arm written in reverse order) [5d]	27 (SEQ ID NO: 68) ° C.			
[(GPO)6G3)2KG3K^Biotin [b-6d]	37 (SEQ ID NO: 65) ° C.			
[(GPO)9G3)2KG3K^Biotin [b-9d]	68 (SEQ ID NO: 62) ° C.			
[(GPO)9G3)2KG [9d]	69 (SEQ ID NO: 55) ° C.		69 (SEQ ID NO: 55) ° C.	increase in refolding rate compared to monomeric GPO9 [4]: two-fold; binding to gelatin wells at 37° C. without preheating [2]: bind more significantly than the GPO9 monomer without preheating; ability to bind gelatin (porcine gelatin; 15° C.): maintained its greater ability to bind gelatin; ability to bind gelatin (porcine gelatin; 37° C.): higher ability to bind gelatin than that of an equivalent number of strands in their monomeric counterparts
